The values below come from publication PMC9079729, “Conservation of the conformational dynamics and ligand binding within M49 enzyme family” (RSC Advances, 2018).

Residues, ends and D or L forms follow the SMILES beside them.

The target of one assay is T1, BtDPP III (Bacteroides thetaiotaomicron, UniProt Q8A6N1).
T1 construct: made in house; host or cells: E. coli
Briefly: Inhibition of DPP III hydrolysis of Arg2-2NA by tynorphin. Type of assay: biochemical. Conditions: substrate Arg2-2NA, from initial hydrolysis rates, eq. 1.

For assay [1], the target named is T2, yDPP III (Saccharomyces cerevisiae, UniProt Q08225).
T2 construct: His6 (C); made in house; host or cells: E. coli
T2 sequence (Q08225 1-711): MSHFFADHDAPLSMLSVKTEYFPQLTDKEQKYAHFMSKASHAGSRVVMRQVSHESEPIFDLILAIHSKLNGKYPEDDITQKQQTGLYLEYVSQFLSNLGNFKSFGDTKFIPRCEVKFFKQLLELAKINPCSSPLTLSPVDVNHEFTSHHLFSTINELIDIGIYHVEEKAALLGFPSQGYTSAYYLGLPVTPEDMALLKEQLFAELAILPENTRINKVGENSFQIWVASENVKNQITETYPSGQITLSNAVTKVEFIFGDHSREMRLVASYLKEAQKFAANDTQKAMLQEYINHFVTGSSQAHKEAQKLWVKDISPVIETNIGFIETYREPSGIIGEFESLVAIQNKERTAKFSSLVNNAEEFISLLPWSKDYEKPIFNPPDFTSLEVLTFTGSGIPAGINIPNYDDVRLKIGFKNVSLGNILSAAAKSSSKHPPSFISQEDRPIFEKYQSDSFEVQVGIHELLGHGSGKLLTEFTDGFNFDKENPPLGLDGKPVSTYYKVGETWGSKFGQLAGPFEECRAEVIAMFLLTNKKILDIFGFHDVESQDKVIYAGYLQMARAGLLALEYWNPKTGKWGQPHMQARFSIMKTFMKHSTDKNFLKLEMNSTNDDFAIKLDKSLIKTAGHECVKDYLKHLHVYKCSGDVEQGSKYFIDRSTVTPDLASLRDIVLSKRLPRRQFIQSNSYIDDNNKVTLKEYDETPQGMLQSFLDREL
The assay is described as follows: Differential HDX-MS, unliganded vs. tynorphin complex. Type of assay: binding, yeast (Saccharomyces cerevisiae). Conditions: yDPP III peptide p42 (407-422). On the procedure: In the first step of the HDX analysis, optimization of digestion conditions and establishing a list of peptic peptides for all DPP III orthologues was carried out. With non-deuterated sample, a 5 μL aliquot of protein stock (between 35–50 μM in 20 mM Tris, pH 7.4) was diluted 10 times by adding 45 μL of 20 mM Tris, pH 7.4 (H2O reaction buffer). Next, the sample was acidified by mixing with 10 μL of 2 M glycine buffer, pH 2.5 (H2O stop buffer). The sample was subjected to online pepsin digestion using a 2.1 mm × 30 mm immobilized pepsin resin column (Porozyme, ABI, Foster City, CA) with 200 μL min^−1 flow of 0.07% formic acid in water as a mobile phase. Digested peptides were passed directly to the 2.1 mm × 5 mm C18 trapping column (Acquity BEH C18 VanGuard precolumn, 1.7 μm resin, Waters, Milford, MA). […]
Separate hydrogen deuterium exchange experiments were carried out for six unliganded DPP III enzymes, human V412I mutant, and their tynorphin complexes. […] The reaction buffer was prepared using D2O (99.8% Armar Chemicals, Switzerland), in which the pH (uncorrected meter reading) was adjusted using DCl or NaOD (Sigma). […] Relative deuterium uptake values are calculated without correction for back exchange. […]

Assay [2] deals with T2, yDPP III. The assay is described as follows: Inhibition of DPP III hydrolysis of Arg2-2NA by tynorphin. The format is biochemical, yeast (Saccharomyces cerevisiae). Conditions: substrate Arg2-2NA, from initial hydrolysis rates, eq. 1. Here is the method: The Km values for hydrolysis of fluorogenic substrate Arg2-2NA were determined at pH 7.4 (20 mM Tris–HCl buffer) and at 25 °C, from the initial reaction rates as previously described.[26]
Enzyme inhibition studies with tynorphin were performed using the Arg2-2NA as a substrate, according to Baršun et al.[36] The inhibition constant, Ki, was calculated according to the equation:1 Ki = i/(v0/vi − 1)·Km/(Km + s)where v0 and vi are the initial hydrolysis rates of Arg2-2NA (given in concentration s) catalyzed by DPP III in the absence and presence of inhibitor concentration (i), and Km is the Michaelis constant.

T1 sequence (Q8A6N1 entry or part of it, change not shown): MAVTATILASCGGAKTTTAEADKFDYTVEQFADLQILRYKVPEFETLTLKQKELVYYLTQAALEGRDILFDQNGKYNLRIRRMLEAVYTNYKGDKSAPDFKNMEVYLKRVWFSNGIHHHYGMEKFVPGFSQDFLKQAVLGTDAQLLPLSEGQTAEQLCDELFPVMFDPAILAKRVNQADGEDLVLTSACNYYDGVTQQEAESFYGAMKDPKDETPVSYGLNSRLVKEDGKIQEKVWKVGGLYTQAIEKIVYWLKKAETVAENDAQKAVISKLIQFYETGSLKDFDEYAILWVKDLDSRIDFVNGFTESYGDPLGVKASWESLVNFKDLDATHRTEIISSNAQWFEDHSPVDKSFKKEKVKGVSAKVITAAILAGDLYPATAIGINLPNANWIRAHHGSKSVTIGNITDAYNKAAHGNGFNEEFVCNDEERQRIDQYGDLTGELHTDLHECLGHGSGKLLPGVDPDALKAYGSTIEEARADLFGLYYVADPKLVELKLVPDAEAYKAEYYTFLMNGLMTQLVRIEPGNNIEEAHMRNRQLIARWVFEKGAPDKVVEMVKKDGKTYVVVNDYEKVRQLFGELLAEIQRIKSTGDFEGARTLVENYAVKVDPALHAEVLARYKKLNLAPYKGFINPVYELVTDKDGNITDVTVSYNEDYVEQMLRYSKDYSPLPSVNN

Consider `CC(C)[C@H](N)C(=O)N[C@H](C(=O)N[C@@H](Cc1ccc(O)cc1)C(=O)N1CCC[C@H]1C(=O)N[C@@H](Cc1c[nH]c2ccccc12)C(=O)O)C(C)C` [tynorphin] (H-VVYPW-OH), for which, at BtDPP III, the inhibition constant Ki worked out at 980 nM. Moreover, on yDPP III [1], the “deuterium incorporation decrease, fast exchanging conformation” value is recorded as “less than 1%” and the “deuterium incorporation decrease, slow exchanging conformation” value is “more than 22%”. The compound further showed an inhibitory constant (Ki) on yDPP III [2] of 470 nM.
